Data on 3 compounds can be found in US20090081153A1, “COMBINATION OF SYNTHETIC ANTIMICROBIAL POLYMERS AND SESQUITERPENOID COMPOUNDS” (POLYMEDIX, INC., priority 2007, published 2009).

One experiment deals with E. coli. Put plainly: Antimicrobial disc assay against E. coli. It counts as cell-based. To be noted: another assay, comparison with traditional antibiotics; results not shown.
Another experiment concerns E. coli ATCC 25922. Put plainly: Inactivation kinetics, E. coli ATCC 25922 viability. The class given is cell-based. Conditions: Compound C 31.25 μg/ml, Nerolidol 200 μM. The source says:
The surviving cell numbers (log10) were plotted against time for each treatment. The average slopes were obtained using linear regression analysis and were used to calculate D-values for each treatment using D=−1/slope.

gentamicin: the “Impact of sesquiterpenoids on activity against E. coli” value in the experiment on E. coli is “no impact”.

Take `C=CC(C)(O)CCC=C(C)CCC=C(C)C` (mixture of isomers) [Nerolidol, nerolidol]: the “D-value (Decimal log reduction time)” value in the experiment on E. coli ATCC 25922 (D=−1/slope of log10 survivors vs time) is 260.80 min. Moreover, the Surviving cell numbers came out at 8.83 log10 in the experiment on E. coli ATCC 25922 (Time 0 min); 8.80 log10 with E. coli ATCC 25922 (Time 5 min); 8.79 log10 in the experiment with E. coli ATCC 25922 (Time 10 min); 8.79 log10 in the experiment on E. coli ATCC 25922 (Time 15 min); 8.77 log10 with E. coli ATCC 25922 (Time 30 min).

Regarding `CN[C@H](CC(C)C)C(=O)N[C@H]1C(=O)N[C@@H](CC(N)=O)C(=O)N[C@H]2C(=O)N[C@H]3C(=O)N[C@H](C(=O)N[C@H](C(=O)O)c4cc(O)cc(O)c4-c4cc3ccc4O)[C@H](O)c3ccc(c(Cl)c3)Oc3cc2cc(c3O[C@@H]2O[C@H](CO)[C@@H](O)[C@H](O)[C@H]2O[C@H]2C[C@](C)(N)[C@H](O)[C@H](C)O2)Oc2ccc(cc2Cl)[C@H]1O` [vancomycin], the “Impact of sesquiterpenoids on activity against E. coli” value with E. coli is recorded as “no impact”.
